Assay results from ChEMBL document CHEMBL4330174, “Allosteric mGluR3 Modulators for the Treatment of Psychiatric Disorders” (ACS Med Chem Lett, 2019).

Target: Metabotropic glutamate receptor 3 (Homo sapiens, UniProt Q14832)
Assay: Positive allosteric modulation of human mGluR3 expressed in HEK293 cells assessed as increase in glutamate-induced calcium mobilization preincubated for 10 mins followed by glutamate addition and measured for 3 mins by Fluo4-AM dye based FLIPR assay
Type: functional, cell-based

Chain of Metabotropic glutamate receptor 3 (Q14832 whole entry): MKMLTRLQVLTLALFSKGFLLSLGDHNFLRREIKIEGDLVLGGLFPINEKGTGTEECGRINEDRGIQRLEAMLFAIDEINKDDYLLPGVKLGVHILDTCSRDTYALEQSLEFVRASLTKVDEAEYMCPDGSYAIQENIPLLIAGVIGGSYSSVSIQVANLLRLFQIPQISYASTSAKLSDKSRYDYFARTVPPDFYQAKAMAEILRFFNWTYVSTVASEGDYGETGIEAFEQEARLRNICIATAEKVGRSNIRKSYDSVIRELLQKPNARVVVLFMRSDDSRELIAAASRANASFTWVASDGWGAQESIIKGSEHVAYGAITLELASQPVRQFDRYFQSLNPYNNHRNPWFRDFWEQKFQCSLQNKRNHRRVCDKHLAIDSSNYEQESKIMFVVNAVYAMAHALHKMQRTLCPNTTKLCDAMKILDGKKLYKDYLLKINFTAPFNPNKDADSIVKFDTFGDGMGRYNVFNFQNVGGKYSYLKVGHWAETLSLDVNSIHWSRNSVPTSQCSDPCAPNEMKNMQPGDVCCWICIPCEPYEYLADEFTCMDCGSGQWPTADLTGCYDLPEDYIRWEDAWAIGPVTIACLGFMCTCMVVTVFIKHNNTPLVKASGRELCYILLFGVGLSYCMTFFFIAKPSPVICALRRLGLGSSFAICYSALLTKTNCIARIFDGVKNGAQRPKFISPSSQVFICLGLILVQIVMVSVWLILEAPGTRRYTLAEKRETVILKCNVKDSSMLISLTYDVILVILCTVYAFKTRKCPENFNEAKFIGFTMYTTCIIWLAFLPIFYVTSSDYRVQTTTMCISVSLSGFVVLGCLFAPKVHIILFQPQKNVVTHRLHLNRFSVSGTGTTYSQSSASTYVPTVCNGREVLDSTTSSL

SMILES | EC50
CN1C(=O)c2ncccc2-c2cc(-c3ccc(F)cn3)ccc2C12CC2 | < 100 nM
COCn1cc2c(n1)C(=O)N(C)Cc1ccc(-c3ccc(F)cn3)cc1-2 | 100 to 1000 nM
COCn1cc2c(n1)C(=O)N(C)C1(CC1)c1ccc(-c3ccc(F)nc3)cc1-2 | < 100 nM
COc1ccc2c(n1)C(=O)N(C)Cc1ccc(-c3ccc(F)nc3)cc1-2 | < 100 nM
COc1ccc2c(n1)C(=O)N(C)C1(CC1)c1ccc(-c3ccc(F)nc3)cc1-2 | < 100 nM
CN1C(=O)c2cccn2-c2cc(-c3ccc(F)nc3)ccc2C12CCC2 | < 100 nM
CCn1cc2c(n1)C(=O)N(C)Cc1ccc(-c3cccnc3C)cc1-2 | 100 to 1000 nM
CN1C(=O)c2ncccc2-c2cc(-c3ccc(F)nc3)ccc2C12CC2 | < 100 nM
